Assay results from ChEMBL document CHEMBL5543174, “A Nonbactericidal Anionic Antimicrobial Peptide Provides Prophylactic and Therapeutic Efficacies against Bacterial Infections in Mice by Immunomodulatory-Antithrombotic Duality” (J Med Chem, 2024).
Active and inactive are the calls of the source. The calls are words filed in the database; no cut-off is given here.

Legend:
[1] = system: Escherichia coli; assay: Antibacterial activity against Escherichia coli ATCC 25922 infected in C57BL/6 mouse assessed as reduction in IL-1beta level in peritoneal fluid at 10 mg/kg,ip administrated 5 hrs after bacterial infection measured after 24 hrs by ELISA; assay type: functional, organism-based; conditions: time 19.0 hrs
[2] = system: Escherichia coli; assay: Antibacterial activity against Carbapenem-resistant Escherichia coli infected in C57BL/6 mouse assessed as reduction in bacterial load at 10 mg/kg,ip administrated 5 hrs after bacterial infection; assay type: functional, organism-based
[3] = system: Mus musculus; assay: Anticoagulation activity in mouse infected with Carbapenem-resistant Escherichia coli assessed as increase in plasma AT-III expression at 10 mg/kg,ip administrated 5 hrs after bacterial infection measured after 24 hrs by ELISA; assay type: functional, organism-based; conditions: time 19.0 hrs
[4] = system: Escherichia coli; assay: Antibacterial activity against Carbapenem-resistant Escherichia coli infected in C57BL/6 mouse assessed as reduction in TNF-alpha level in serum at 10 mg/kg,ip administrated 5 hrs after bacterial infection measured after 24 hrs by ELISA; assay type: functional, organism-based; conditions: time 19.0 hrs
[5] = system: Staphylococcus aureus; assay: Antimicrobial activity against Staphylococcus aureus ATCC 25923 assessed as reduction in microbial colony forming unit at 200 ug/ml incubated for 1 to 4 hrs by time-kill kinetics based analysis; assay type: functional, organism-based; conditions: dose 200.0 µg/ml, time 1-4 hrs
[6] = system: Escherichia coli; assay: Antimicrobial activity against Escherichia coli ATCC 25922 assessed as inhibition of microbial growth at <= 200 ug/ml incubated for 18 hrs by micro-broth dilution method; assay type: functional, organism-based; conditions: dose <= 200.0 µg/ml
[7] = system: Klebsiella pneumoniae; assay: Antimicrobial activity against Klebsiella pneumoniae ATCC 27736 assessed as inhibition of microbial growth at <= 200 ug/ml incubated for 18 hrs by micro-broth dilution method; assay type: functional, organism-based; conditions: dose <= 200.0 µg/ml
[8] = system: Peritoneal macrophage cell; assay: Induction of chemotaxis in mouse Peritoneal macrophage assessed as upregulation of CXCL1 production at 100 ug/ml preincubated with KN-62 followed by compound addition by ELISA; assay type: functional, cell-based; conditions: dose 100.0 µg/ml
[9] = system: Escherichia coli; assay: Antibacterial activity against Escherichia coli ATCC 25922 infected in C57BL/6 mouse assessed as reduction in TNF-alpha level in peritoneal fluid at 10 mg/kg,ip administrated 5 hrs after bacterial infection measured after 24 hrs by ELISA; assay type: functional, organism-based; conditions: time 19.0 hrs
[10] = system: Escherichia coli; assay: Antibacterial activity against Carbapenem-resistant Escherichia coli infected in C57BL/6 mouse assessed as increase in survival rate at 10 mg/kg,ip administrated 5 hrs after bacterial infection measured after 7 days; assay type: functional, organism-based; conditions: time 7.0 day
[11] = system: Peritoneal macrophage; assay: Induction of chemotaxis in mouse Peritoneal macrophage assessed as upregulation of CXCL2 gene expression incubated for 6 hrs by qPCR analysis; assay type: functional, cell-based
[12] = system: Peritoneal macrophage; assay: Induction of chemotaxis in mouse Peritoneal macrophage assessed as upregulation of TNF-alpha expression at 25 to 100 ug/ml incubated for 6 hrs by ELISA; assay type: functional, cell-based; conditions: dose 25-100 µg/ml
[13] = system: Peritoneal macrophage cell; assay: Induction of chemotaxis in mouse Peritoneal macrophage assessed as increase in macrophage migration at 25 to 100 ug/ml incubated for 8 hrs by crystal violet staining based direct transwell assay; assay type: functional, cell-based; conditions: dose 25-100 µg/ml
[14] = system: Peritoneal macrophage; assay: Immunoregulatory activity in mouse Peritoneal macrophage assessed as change in total p65 expression at 25 to 100 ug/ml incubated for 1 hr by Western blotting analysis; assay type: functional, cell-based; conditions: dose 25-100 µg/ml
[15] = system: Mus musculus; assay: Immunomodulatory activity in cyclophosphamide immunosuppressed C57BL/6 mouse with neutrophil depletion model assessed as change in B-lymphocytes in peritoneal lavage at 10 mg/kg,ip administration measured after 5 to 24 hrs by flow cytometry; assay type: functional, organism-based; conditions: time 5-24 hrs
[16] = system: Mus musculus; assay: Anticoagulation activity in mouse infected with Carbapenem-resistant Escherichia coli assessed as increase in plasma TFPI expression at 10 mg/kg,ip pre-administrated 5 hrs before bacterial infection measured after 24 hrs by ELISA; assay type: functional, organism-based; conditions: time 29.0 hrs
[17] = system: Neutrophil; assay: Induction of chemotaxis in mouse bone marrow derived neutrophil assessed as increase in neutrophil migration at 100 ug/ml preincubated with MTS510 for 30 mins followed by compound addition measured after 8 hrs by crystal violet staining based indirect transwell assay; assay type: functional, cell-based; conditions: dose 100.0 µg/ml
[18] = system: Escherichia coli; assay: Antibacterial activity against Carbapenem-resistant Escherichia coli infected in C57BL/6 mouse with clodronate liposome-induced monocyte depletion model assessed as decrease in bacterial burden in peritoneal cavity at 10 mg/kg,ip administrated 5 hrs after bacterial infection measured after 24 hrs; assay type: functional, organism-based; conditions: time 19.0 hrs
[19] = system: Staphylococcus aureus; assay: Antibacterial activity against Methicillin-resistant Staphylococcus aureus infected in C57BL/6 mouse assessed as reduction in TNF-alpha level in peritoneal fluid at 10 mg/kg,ip administrated 5 hrs after bacterial infection measured after 24 hrs by ELISA; assay type: functional, organism-based; conditions: time 19.0 hrs
[20] = system: Escherichia coli; assay: Antibacterial activity against Carbapenem-resistant Escherichia coli infected in C57BL/6 mouse assessed as reduction in IL-1beta level in serum at 10 mg/kg,ip administrated 5 hrs after bacterial infection measured after 24 hrs by ELISA; assay type: functional, organism-based; conditions: time 19.0 hrs
[21] = system: Mus musculus; assay: Anticoagulation activity in mouse infected with Methicillin-resistant Staphylococcus aureus assessed as increase in plasma APC expression at 10 mg/kg,ip administrated 5 hrs after bacterial infection measured after 24 hrs by ELISA; assay type: functional, organism-based; conditions: time 19.0 hrs
[22] = system: Mus musculus; assay: Inhibition of fibrin formation in mouse infected with Methicillin-resistant Staphylococcus aureus assessed as reduction in fibrin deposition in lung at 10 mg/kg,ip administrated 5 hrs after bacterial infection measured after 24 hrs by immunohistochemical analysis; assay type: functional, organism-based; conditions: time 19.0 hrs
[23] = system: Staphylococcus aureus; assay: Antibacterial activity against Staphylococcus aureus ATCC 25923 infected in C57BL/6 mouse assessed as reduction in IL-1beta level in peritoneal fluid at 10 mg/kg,ip administrated 5 hrs after bacterial infection measured after 24 hrs by ELISA; assay type: functional, organism-based; conditions: time 19.0 hrs
[24] = system: Staphylococcus aureus; assay: Antibacterial activity against Methicillin-resistant Staphylococcus aureus infected in C57BL/6 mouse with cyclophosphamide-induced neutrophil depletion model assessed as reduction of bacterial burden in peritoneal cavity at 10 mg/kg,ip pre-administrated 5 hrs before bacterial infection measured after 24 hrs; assay type: functional, organism-based; conditions: time 29.0 hrs
[25] = system: Escherichia coli; assay: Antimicrobial activity against Carbapenem-resistant Escherichia coli assessed as reduction in metabolic activity at < 200 ug/ml incubated for 1 to 4 hrs by CCK-8 assay; assay type: functional, organism-based; conditions: dose < 200.0 µg/ml, time 1-4 hrs
[26] = system: Staphylococcus aureus; assay: Antibacterial activity against Staphylococcus aureus ATCC 25923 infected in C57BL/6 mouse assessed as reduction in TNF-alpha level in peritoneal fluid at 10 mg/kg,ip pre-administrated 5 hrs before bacterial infection measured after 24 hrs by ELISA; assay type: functional, organism-based; conditions: time 29.0 hrs
[27] = system: Peritoneal macrophage; assay: Induction of chemotaxis in mouse Peritoneal macrophage assessed as upregulation of MCP-1 production at 100 ug/ml preincubated with KN-62 followed by compound addition by ELISA; assay type: functional, cell-based; conditions: dose 100.0 µg/ml
[28] = system: Escherichia coli; assay: Antibacterial activity against Carbapenem-resistant Escherichia coli infected in C57BL/6 mouse assessed as reduction in inflammatory injury in lung at 10 mg/kg,ip administrated 5 hrs after bacterial infection measured after 24 hrs by hematoxylin and eosin staining based analysis; assay type: functional, organism-based; conditions: time 19.0 hrs
[29] = system: Peritoneal macrophage; assay: Induction of chemotaxis in mouse Peritoneal macrophage assessed as upregulation of CXCL1 expression incubated for 6 hrs by ELISA; assay type: functional, cell-based
[30] = system: Morganella morganii; assay: Antimicrobial activity against Morganella morganii ATCC25830 assessed as inhibition of microbial growth at <= 200 ug/ml incubated for 18 hrs by micro-broth dilution method; assay type: functional, organism-based; conditions: dose <= 200.0 µg/ml

With `CC[C@H](C)[C@H](NC(=O)[C@@H]1CSSC[C@H](NC(=O)[C@H](CCC(=O)O)NC(=O)[C@@H](NC(=O)[C@H](CCCCN)NC(=O)[C@H](Cc2c[nH]cn2)NC(=O)[C@@H](NC(=O)[C@H](CCCCN)NC(=O)[C@H](CCC(=O)O)NC(=O)[C@H](C)NC(=O)[C@H](CCC(=O)O)NC(=O)[C@H](CCC(=O)O)NC(=O)[C@H](CCC(=O)O)NC(=O)[C@H](C)N)[C@@H](C)O)[C@@H](C)O)C(=O)N[C@@H](CC(C)C)C(=O)N[C@@H](CCC(=O)O)C(=O)N1)C(=O)N[C@@H](Cc1ccccc1)C(=O)N[C@H](C(=O)N[C@@H](CC(C)C)C(=O)N[C@@H](CC(C)C)C(=O)N1CCC[C@H]1C(=O)N1CCC[C@@H]1C(=O)N[C@H](C)C(=O)O)[C@@H](C)O` the Activity [1] was “Active”, the Activity [2] was “Active” and the Activity [3] was “Active”. The Activity [4] was “Active”, the Activity [5] was “inactive” and the Activity [6] was “inactive”. The Activity [7] was “inactive”, the Activity [8] was “Active” and the Activity [9] was “Active”. For the same molecule, the Activity [10] was “Active”, the Activity [11] was “Dose-Dependent Effect” and the Activity [12] was “inactive”. The Activity [13] was “inactive”, the Activity [14] was “inactive” and the Activity [15] was “inactive”. For the same molecule, the Activity [16] was “Active”, the Activity [17] was “Active” and the Activity [18] was “inactive”. The Activity [19] was “Active”, the Activity [20] was “Active” and the Activity [21] was “Active”. The inhibition [22] was “Active”, the Activity [23] was “Active” and the Activity [24] was “inactive”. The Activity [25] was “inactive”, the Activity [26] was “Active” and the Activity [27] was “Active”. For the same molecule, the Activity [28] was “Active”, the Activity [29] was “Dose-Dependent Effect” and the Activity [30] was “inactive”.
